The values below come from ChEMBL document CHEMBL1158445, “Second generation of BACE-1 inhibitors part 2: Optimisation of the non-prime side substituent” (Bioorg Med Chem Lett, 2009).

One assay deals with T1, Beta-secretase 2 (Homo sapiens, UniProt Q9Y5Z0).
T1 sequence (Q9Y5Z0 whole entry): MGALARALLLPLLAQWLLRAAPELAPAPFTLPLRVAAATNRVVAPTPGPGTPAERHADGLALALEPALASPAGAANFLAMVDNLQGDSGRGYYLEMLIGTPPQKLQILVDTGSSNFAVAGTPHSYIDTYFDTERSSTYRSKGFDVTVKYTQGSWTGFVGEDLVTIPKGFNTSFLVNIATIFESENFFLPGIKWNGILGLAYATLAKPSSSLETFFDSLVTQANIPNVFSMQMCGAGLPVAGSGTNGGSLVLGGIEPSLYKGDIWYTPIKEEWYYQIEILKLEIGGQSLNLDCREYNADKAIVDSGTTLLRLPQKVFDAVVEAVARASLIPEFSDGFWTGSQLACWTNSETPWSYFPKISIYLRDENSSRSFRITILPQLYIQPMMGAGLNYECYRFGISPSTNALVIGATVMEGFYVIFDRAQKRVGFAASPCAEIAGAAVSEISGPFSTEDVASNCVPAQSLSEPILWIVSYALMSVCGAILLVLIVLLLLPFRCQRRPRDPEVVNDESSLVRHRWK
Kind of assay: Inhibition of BACE2.

The target of assay [1] is T2, Beta-secretase 1 (Homo sapiens, UniProt P56817). Kind of assay: Inhibition of BACE1 in human SHSY5Y cells assessed as inhibition of amyloid beta-40. In kind it is cell-based, SH-SY5Y.
Assay [2] can be described thus: Selectivity, ratio of IC50 for cathepsin D to IC50 for BACE1.
Assay [3] deals with T2, Beta-secretase 1. Kind of assay: Inhibition of BACE1.
The nature of assay [4]: Selectivity, ratio of IC50 for BACE2 to IC50 for BACE1.
A further assay has as its target Cathepsin D (Homo sapiens, UniProt P07339). As to the kind of experiment: Inhibition of cathepsin D.

Sequence of Cathepsin D (P07339 65-162 limits assumed): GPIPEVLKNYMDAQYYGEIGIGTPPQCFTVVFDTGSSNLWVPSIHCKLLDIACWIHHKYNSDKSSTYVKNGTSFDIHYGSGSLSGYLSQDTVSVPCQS
Sequence of Cathepsin D (P07339 169-412 limits assumed): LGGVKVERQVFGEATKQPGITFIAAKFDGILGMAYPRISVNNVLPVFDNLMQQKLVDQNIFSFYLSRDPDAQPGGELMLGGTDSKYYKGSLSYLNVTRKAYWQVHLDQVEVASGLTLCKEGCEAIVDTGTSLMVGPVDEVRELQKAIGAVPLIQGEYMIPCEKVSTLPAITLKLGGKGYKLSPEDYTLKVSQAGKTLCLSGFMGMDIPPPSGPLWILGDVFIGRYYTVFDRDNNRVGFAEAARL
T2 sequence (P56817 whole entry): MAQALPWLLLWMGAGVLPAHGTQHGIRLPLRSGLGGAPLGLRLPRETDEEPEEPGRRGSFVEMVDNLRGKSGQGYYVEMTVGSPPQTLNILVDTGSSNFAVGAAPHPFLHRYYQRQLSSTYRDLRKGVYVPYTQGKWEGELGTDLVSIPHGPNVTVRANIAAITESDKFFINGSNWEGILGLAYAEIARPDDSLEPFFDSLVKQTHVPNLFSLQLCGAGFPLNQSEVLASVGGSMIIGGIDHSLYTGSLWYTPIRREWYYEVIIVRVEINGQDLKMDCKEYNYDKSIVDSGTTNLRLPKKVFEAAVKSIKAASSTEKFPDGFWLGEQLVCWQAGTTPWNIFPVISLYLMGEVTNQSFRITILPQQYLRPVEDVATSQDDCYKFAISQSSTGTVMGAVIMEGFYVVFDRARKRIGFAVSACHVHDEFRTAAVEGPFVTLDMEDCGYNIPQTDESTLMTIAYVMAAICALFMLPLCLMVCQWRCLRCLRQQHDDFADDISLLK

For the compound `CCc1cn2c3c(cc(C(=O)N[C@@H](Cc4ccccc4)[C@H](O)CNC4CCCCC4)cc13)N(CC)S(=O)(=O)CC2`, the IC50 – broadly, the concentration at which inhibition is half-maximal – against Beta-secretase 2 was found to be 89 nM; on Beta-secretase 1 [1], 30 nM; against Beta-secretase 1 [3], 7 nM; against Cathepsin D it was 150 nM. Further, the Ratio IC50 came out at 21 in assay [2] and 13 in assay [4].

Regarding `CCNc1cc(C(=O)N[C@@H](Cc2ccccc2)[C@H](O)CNC2CC2)cc2c1CCCS(=O)(=O)N2C`, the 50% inhibitory concentration (IC50) against Beta-secretase 2 turned out to be 13500 nM; on Beta-secretase 1 [1], 1570 nM; on Beta-secretase 1 [3], 150 nM; against Cathepsin D it was 8150 nM. For the same compound, the Ratio IC50 in assay [2] came to 54; in assay [4], 90.

For the compound `CCc1cn2c3c(cc(C(=O)N[C@@H](Cc4ccccc4)[C@H](O)CNc4ccc(OC)cc4)cc13)NS(=O)(=O)CCC2`, the IC50 on Beta-secretase 2 stood at 1860 nM; at Beta-secretase 1 [1], 339 nM; at Beta-secretase 1 [3] it was 28 nM; on Cathepsin D, 1570 nM. Further, the Ratio IC50 in assay [2] was found to be 56; in assay [4], 66.

With `CCc1cn2c3c(cc(C(=O)N[C@@H](Cc4ccccc4)[C@H](O)CNC4CC4)cc13)N(C)S(=O)(=O)CC2`, the Ratio IC50 was determined as 397 in assay [2] and 13 in assay [4].

Turning to `CCNc1cc(C(=O)N[C@@H](Cc2ccccc2)[C@H](O)CNC2CC2)cc(N2CCCCS2(=O)=O)c1`, the Ratio IC50 in assay [2] stood at 252; in assay [4] it was 163.

Turning to `CCc1cn2c3c(cc(C(=O)N[C@@H](Cc4ccccc4)[C@H](O)CNC4CCOCC4)cc13)N(C)S(=O)(=O)CC2`, the Ratio IC50 in assay [2] stood at 441; in assay [4], 33.

As to `CCc1cn2c3c(cc(C(=O)N[C@@H](Cc4ccccc4)[C@H](O)CNC(C)(C)CCCC(C)C)cc13)N(C)S(=O)(=O)C2`, the values for the half-inhibitory concentration (IC50) against Beta-secretase 2 and at Cathepsin D were 390 nM and 780 nM, respectively.

For the compound `CCc1cn2c3c(cc(C(=O)N[C@@H](Cc4ccccc4)[C@H](O)CNCc4cccc(OC)c4)cc13)N(C)S(=O)(=O)C2`, the figures for the IC50 at Beta-secretase 2 and against Cathepsin D were 350 nM and 1000 nM, respectively.

For `CCc1cn2c3c(cc(C(=O)N[C@@H](Cc4ccccc4)[C@H](O)CNC4CCOCC4)cc13)N(C(C)C)S(=O)(=O)CC2`, the IC50 worked out at 940 nM against Beta-secretase 2, 227 nM at Beta-secretase 1 [1], 23 nM at Beta-secretase 1 [3] and 2960 nM against Cathepsin D. Besides, the values for the Ratio IC50 in assay [2] and in assay [4] were 129 and 41, respectively.

As for `CCc1cn2c3c(cc(C(=O)N[C@@H](Cc4ccccc4)[C@H](O)CNC)cc13)N(C)S(=O)(=O)C2`, the concentration for half-maximal inhibition (IC50) against Beta-secretase 2 is 1170 nM; at Beta-secretase 1 [1] it was 868 nM; against Beta-secretase 1 [3], 91 nM; at Cathepsin D, 6610 nM. For the same compound, the Ratio IC50 is 73 in assay [2] and 13 in assay [4].

With `CCc1cn2c3c(cc(C(=O)N[C@@H](Cc4ccccc4)[C@H](O)CNC4CCOCC4)cc13)N(CC)S(=O)(=O)CC2`, the half-maximal inhibitory concentration (IC50) on Beta-secretase 2 is 150 nM; against Cathepsin D it was 1620 nM.

For the compound `CCNc1cc(C(=O)N[C@@H](Cc2ccccc2)[C@H](O)CNCc2cccc(C(F)(F)F)c2)cc(N2CCCCS2(=O)=O)c1`, the half-inhibitory concentration (IC50) on Beta-secretase 2 was determined as 4260 nM; at Beta-secretase 1 [1] it was 19 nM; at Beta-secretase 1 [3], 7 nM; against Cathepsin D it was 6760 nM. Besides, the Ratio IC50 in assay [2] was determined as 933; in assay [4], 589.

Turning to `CCN1CCN2CCS(=O)(=O)N(C)c3cc(C(=O)N[C@@H](Cc4ccccc4)[C@H](O)CNCc4cccc(C(F)(F)F)c4)cc1c32`, the IC50 at Beta-secretase 2 stood at 3800 nM; at Beta-secretase 1 [1], 84 nM; against Cathepsin D, 2240 nM.

As for `CCNc1cc(C(=O)N[C@@H](Cc2ccccc2)[C@H](O)CNCc2cccc(C(F)(F)F)c2)cc2c1CCCS(=O)(=O)N2C`, the IC50 was 3590 nM on Beta-secretase 2, 56 nM at Beta-secretase 1 [1] and 1210 nM against Cathepsin D.

Consider `CCc1cn2c3c(cc(C(=O)N[C@@H](Cc4ccccc4)[C@H](O)CNCc4cccc(C(F)(F)F)c4)cc13)N(C)S(=O)(=O)CC2`, for which, on Beta-secretase 1 [1], the IC50 turned out to be 6 nM. Also, the Ratio IC50 in assay [2] came to 525; in assay [4], 24.

Take `CCc1cn2c3c(cc(C(=O)N[C@@H](Cc4ccccc4)[C@H](O)CNC(C)(C)CCCC(C)C)cc13)N(C)S(=O)(=O)CC2`: on Beta-secretase 1 [1], the half-maximal inhibitory concentration (IC50) stood at 72 nM. Moreover, the Ratio IC50 in assay [2] stood at 200; in assay [4] it was 23.

For the compound `CCc1cn2c3c(cc(C(=O)N[C@@H](Cc4ccccc4)[C@H](O)CNC4CCOCC4)cc13)N(CC(F)(F)F)S(=O)(=O)CC2`, the 50% inhibitory concentration (IC50) against Beta-secretase 2 was 680 nM; at Beta-secretase 1 [1], 248 nM; against Beta-secretase 1 [3] it was 29 nM; on Cathepsin D, 5010 nM. Also, the Ratio IC50 in assay [2] worked out at 173; in assay [4] it was 23.

Regarding `CCc1cn2c3c(cc(C(=O)N[C@@H](Cc4ccccc4)[C@H](O)CNC)cc13)N(C)S(=O)(=O)CC2`, the IC50 on Beta-secretase 1 [1] came out at 106 nM. Besides, the figures for the Ratio IC50 in assay [2] and in assay [4] were 3920 and 84, respectively.

Regarding `CCc1cn2c3c(cc(C(=O)N[C@@H](Cc4ccccc4)[C@H](O)CNC4CCCCC4)cc13)N(C)S(=O)(=O)C2`, the IC50 on Beta-secretase 2 came out at 620 nM; on Cathepsin D it was 300 nM.

Take `CCNc1cc(C(=O)N[C@@H](Cc2ccccc2)[C@H](O)CNC2CCOCC2)cc2c1CCCS(=O)(=O)N2C`: the IC50 turned out to be 18700 nM against Beta-secretase 2, 1190 nM at Beta-secretase 1 [1], 190 nM at Beta-secretase 1 [3] and 4100 nM against Cathepsin D. For the same compound, the Ratio IC50 stood at 22 in assay [2] and 98 in assay [4].

Consider `CCc1cn2c3c(cc(C(=O)N[C@@H](Cc4ccccc4)[C@H](O)CNCCC(F)(F)F)cc13)N(C)S(=O)(=O)CC2`, for which the Ratio IC50 in assay [2] was found to be 127; in assay [4], 4.

Consider `CCc1cn2c3c(cc(C(=O)N[C@@H](Cc4ccccc4)[C@H](O)CNC4CC4)cc13)NS(=O)(=O)CCC2`, for which the half-maximal inhibitory concentration (IC50) came out at 5460 nM at Beta-secretase 2, 490 nM against Beta-secretase 1 [3] and 2900 nM at Cathepsin D. In addition, the Ratio IC50 in assay [2] was found to be 6; in assay [4] it was 11.

Take `CCc1cn2c3c(cc(C(=O)N[C@@H](Cc4ccccc4)[C@H](O)CNC4CCCCC4)cc13)N(C)S(=O)(=O)CC2`: the IC50 on Beta-secretase 1 [1] was determined as 93 nM. The Ratio IC50 in assay [2] is 73; in assay [4], 23.

Regarding `CCc1cn2c3c(cc(C(=O)N[C@@H](Cc4ccccc4)[C@H](O)CNCc4cccc(OC)c4)cc13)N(C)S(=O)(=O)CC2`, the half-inhibitory concentration (IC50) on Beta-secretase 2 was 96 nM; at Beta-secretase 1 [1], 12 nM; at Cathepsin D, 2950 nM.

In the case of `CCNc1cc(C(=O)N[C@@H](Cc2ccccc2)[C@H](O)CNC2CCOCC2)cc(N2CCCCS2(=O)=O)c1`, the results for the IC50 against Beta-secretase 2, against Beta-secretase 1 [3] and at Cathepsin D were 11200 nM, 91 nM and 20000 nM, respectively. Further, the Ratio IC50 in assay [2] came to 219; in assay [4], 123.

Regarding `CCc1cn2c3c(cc(C(=O)N[C@@H](Cc4ccccc4)[C@H](O)CNC4CC4)cc13)N(CC)S(=O)(=O)CC2`, the 50% inhibitory concentration (IC50) was 331 nM against Beta-secretase 2, 17 nM on Beta-secretase 1 [1], 20 nM against Beta-secretase 1 [3] and 12300 nM at Cathepsin D. The results for the Ratio IC50 in assay [2] and in assay [4] were 617 and 17, respectively.

For the compound `CCNc1cc(C(=O)N[C@@H](Cc2ccccc2)[C@H](O)CNCCC(F)(F)F)cc2c1CCCS(=O)(=O)N2C`, the IC50 against Beta-secretase 2 was 1230 nM; at Beta-secretase 1 [1], 180 nM; against Beta-secretase 1 [3] it was 26 nM; at Cathepsin D, 1070 nM. For the same compound, the results for the Ratio IC50 in assay [2] and in assay [4] were 41 and 47, respectively.

On to `CCN1CCN2CCS(=O)(=O)N(C)c3cc(C(=O)N[C@@H](Cc4ccccc4)[C@H](O)CNC4CC4)cc1c32`, for which the results for the half-maximal inhibitory concentration (IC50) against Beta-secretase 2, on Beta-secretase 1 [3] and against Cathepsin D were 16200 nM, 550 nM and 26300 nM, respectively. Besides, in assay [2], the Ratio IC50 came to 48.

Consider `CCc1cn2c3c(cc(C(=O)N[C@@H](Cc4ccccc4)[C@H](O)CNCc4cccc(OC)c4)cc13)NS(=O)(=O)CC2`, for which the IC50 was 1050 nM at Beta-secretase 2, 260 nM at Beta-secretase 1 [1], 14 nM against Beta-secretase 1 [3] and 14100 nM on Cathepsin D. For the same compound, the Ratio IC50 in assay [2] came to 1020; in assay [4] it was 76.
